Results published in patent US11161830B2, “4-pyridone compound or salt thereof, and pharmaceutical composition and formulation including same” (priority 2017, dated 2021).
Read-outs that look alike come from different tables or passages of the source.

Experiments:
[1] = system: HBV (genotype CAT); experiment: Test Example 2-2: anti-HBV assay in PXB-cells (fresh human hepatocytes); assay type: cell-based; settings: Hepatitis B virus, Hepatocyte
Description: Using fresh human hepatocytes (PXB-cells, manufactured by PhenixBio Co., Ltd.) collected from a PXB mouse (a chimeric mouse with human hepatocytes), the anti-HBV activity of the representative compounds was evaluated in the following procedure.
(§1) The following was used as a medium:
DMEM (manufactured by Sigma)+0.25 μg/mL insulin (manufactured by Wako)+1% penicillin/streptomycin. (manufactured by Sigma)+20 mmol/L HEPES (manufactured by Sigma)+15 μg/mL L-proline (manufactured by Sigma)+50 nmol/L dexamethasone (manufactured by Sigma)+5 ng/mL EGF (manufactured by Peprotech)+0.1 mmol/L ascorbic acid 2-phosphate (manufactured by Wako)+10% FBS+2% DMSO
Each of the test compounds) was further added to the medium to prepare a test solution containing each of the test compounds at various concentrations.
(1) PXB-cells seeded at a seeding density of 2.1×10^5 cells/cm^2 in a 96-well microliter plate were incubated in a 5% CO2 incubator at 37° C. until a day on which the cells were infected.
(2) A HBV (genotype CAT) prepared by transfecting an HBV plasmid into an HepG2 cell was suspended in the medium containing 4% PEG-8000, and added to the plate of (1) at about 30 copies/cell such that the PXB cells were infected (100 μL/well), and the plate was incubated in a 5% CO2 incubator at 37° C. for 1 day.
(3) The culture supernatant on day 1 post infection was removed and the cells were washed three times with DMEM containing 10% FBS and 1% penicillin/streptomycin. Then, the medium was added to the plate (100 μL/well) and the plate was incubated in a 5% CO2 incubator at 37° C. for 1 day.
(4) The culture supernatant on day 2 post infection was removed and the cells were washed three times with DMEM containing 10% FBS and 1% penicillin/streptomycin. Then, the medium was added to the plate (100 μL/well) and the plate was incubated in a 5% CO2 incubator at 37° C. for 5 days.
(5) The culture supernatant on day 7 post infection was removed, the medium was added to the plate (100 μL/well), and the plate was incubated in a 5% CO2 incubator at 37° C. for 5 days.
(6) The culture supernatant on day 12 post infection was removed, the medium was added to the plate (100 μL/well), and the plate was incubated in a 5% CO2 incubator at 37° C. for 5 days.
(§2) (7) The culture supernatant on day 17 post infection was removed, the test solution was added to the plate (100 μL/well), and the plate was incubated in a 5% CO2 incubator at 37° C. for 5 days. As a control without the compound added, the medium was added to the plate (100 μL/well) and the plate was incubated in a 5% CO2 incubator at 37° C. for 5 days.
as §2, with “(8)” for “(7)”, “22” for “17”
as §2, with “(9)” for “(7)”, “27” for “17”
(10) The culture supernatant on day 32 post infection was collected.
(11) The collected culture supernatant on day 32 post infection was treated with a mixture of Buffer AL (manufactured by QIAGEN) and Proteinase K (manufactured by Invitrogen). The amount of HBV-DNA in the obtained solution was absolutely quantified by a real-time PCR method. In addition, the amount of HBsAg in the culture supernatant was absolutely quantified by chemiluminescent enzyme immunoassay using Lumipulse (registered trademark) HBsAg-HQ (manufactured by Fujirebio Inc.). A relative viral load (%) with respect to a control without the compound added was each calculated. […]

[2] = system: HBV; experiment: Test Example 1-2: anti-HBV assay in HepG2.2.15 cells (test solution 100 μL/well); assay type: cell-based, hepatitis B virus; settings: culture supernatant
Description: Using HepG2.2.15 cells (Proc. Natl. Acad. Sci. USA, 84, 1005-1009, 1987) which have an HBV genome introduced into a hepatoblastoma cell line, HepG2, and persistently produce a virus, the anti-HBV activity of the representative compounds was evaluated in the following procedure.
as §1
DMEM/F-12, GlutaMAX (manufactured by Invitrogen)+5 μg/mL insulin (manufactured by Wako)+1% penicillin/streptomycin (manufactured by Sigma)+10 mmol/L HEPES (manufactured by Sigma)+50 μmol/L hydrocortisone (manufactured by Sigma)+10% FBS
A mixture of a test compound with dimethyl sulfoxide (DMSO) was further added to the medium to obtain a final concentration of DMSO of 0.25% (v/v), and thus, test solutions containing the test compound at various concentrations were prepared. In addition, a test solution obtained by adding DMSO alone to the medium to obtain a final concentration of 0.25% (v/v) was prepared as a control without addition of a drug.
(1) The HepG2.2.15 cells were suspended in the medium to prepare a. HepG2.2.15 cell suspension at 4×10^5 cells/mL. The suspension was seeded in a 96-well microtiter plate (100 μL/well) and the plate was incubated in a 5% CO2 incubator at 37° C. for 2 days.
(2) The culture supernatant was removed and the cells were washed twice with PBS (−) (100 μL/well).
(3) The test solution (200 μL/well) was added to the plate of (2) and the plate was incubated in a 5% CO2 incubator at 37° C. for 4 days.
(4) The culture supernatant was removed, the test solution (200 μL/well) was added again to the plate, and the plate was incubated in a 5% CO2 incubator at 37° C. for 3 days.
(5) The culture supernatant was collected and treated with a mixture of Buffer AL (manufactured by QIAGEN) and Proteinase K (manufactured by Invitrogen). The amount of DNA of HBV (HBV-DNA) in the obtained solution was absolutely quantified by a real-time PCR method. In addition, HBsAg (hepatitis B surface antigen) in the culture supernatant was absolutely quantified by chemiluminescent enzyme immunoassay using Lumipulse (registered trademark) HBsAg-HQ (manufactured by Fujirebio Inc.). The relative viral load (%) of a well with the compound added to a well without the compound added was calculated. An IC50 of the compound was calculated using a FORECAST function (linear regression method) of Microsoft Office Excel 2007 by plotting the logarithm of the concentration against the relative viral load as a real number.
The IC50 of HBV-DNA was defined as a concentration (or a logarithm dilution of the culture supernatant) of the compound, in which the amount of HBV-DNA is reduced by 50% as compared a control without the compound added.
In addition, the IC50 of HBsAg was defined as a concentration (or a logarithm dilution of the culture supernatant) of the compound, in which the amount of HBsAg is reduced by 50% as compared a control without the compound added.
The test was performed by the same method as in Test Example 1-1 except that the amounts of the test solutions of (3) and (4) of Test Example 1-1 was changed to 100 μL/well.

[3] = read-out: IC50 HBV-DNA, PXB-cells infected with HBV genotype CAT, culture supernatant on day 32 post infection
[4] = read-out: IC50 HBsAg, PXB-cells infected with HBV genotype CAT, culture supernatant on day 32 post infection
[5] = Hepatitis B virus, read-out: IC50 HBV-DNA
[6] = Hepatitis B virus, read-out: IC50 HBsAg

Row | Compound | IC50 [1, 3] | IC50 [1, 4] | other results
1 | CN(C)[C@@H]1CCN(c2nc3ccc(-n4cc(C(=O)O)c(=O)cc4-c4ccc(N5CCCC5)cc4)cc3s2)C1 [Example 17-2, (R)-1-(2-(3-(dimethylamino)pyrrolidin-1-yl)benzo[d]thiazol-6-yl)-4-oxo-6-(4-(pyrrolidin-1-yl)phenyl)-1,4-dihydropyridine-3-carboxylic acid] | < 500 nM | < 500 nM | 
2 | CO[C@H]1CCN(c2nc3ccc(-n4cc(C(=O)O)c(=O)cc4-c4ccc(N5CCCC5)cc4)cc3s2)C1 [Example 17-3, (S)-1-(2-(3-methoxypyrrolidin-1-yl)benzo[d]thiazol-6-yl)-4-oxo-6-(4-(pyrrolidin-1-yl)phenyl)-1,4-dihydropyridine-3-carboxylic acid] | < 500 nM | < 500 nM | 
3 | COCCOC1CN(c2nc3ccc(-n4cc(C(=O)O)c(=O)cc4-c4ccc(N5CC[C@@H](OC)C5)c(F)c4)cc3s2)C1 [Example 23-9] |  |  | IC50 ([2]; read-out: IC50 HBV-DNA): 0.68 nM; IC50 ([2]; read-out: IC50 HBsAg): 1.8 nM
4 | COCCCOC1CN(c2nc3ccc(-n4cc(C(=O)O)c(=O)cc4-c4ccc(N5CC[C@@H](OC)C5)c(F)c4)cc3s2)C1 [Example 23-5] |  |  | IC50 ([2]; read-out: IC50 HBV-DNA): 0.5 nM; IC50 ([2]; read-out: IC50 HBsAg): 2.7 nM
5 | CO[C@@H]1CCN(c2ccc(-c3cc(=O)c(C(=O)O)cn3-c3ccc4nc(N5CC[C@H](N6CCOCC6)C5)sc4c3)cc2F)C1 [Example 23-1, 6-(3-fluoro-4-((R)-3-methoxypyrrolidin-1-yl)phenyl)-1-(2-((S)-3-morpholinopyrrolidin-1-yl)benzo[d]thiazol-6-yl)-4-oxo-1,4-dihydropyridine-3-carboxylic acid] |  |  | IC50 [2, 5]: 1.7 nM; IC50 [2, 6]: 4.3 nM
6 | COCCO[C@H]1CCN(c2ccc(-c3cc(=O)c(C(=O)O)cn3-c3ccc4nc(N5CCOCC5)sc4c3)cc2)C1 [Example 22-1, (S)-6-(4-(3-(2-methoxyethoxy)pyrrolidin-1-yl)phenyl)-1-(2-morpholinobenzo[d]thiazol-6-yl)-4-oxo-1,4-dihydropyridine-3-carboxylic acid] |  |  | IC50 [2, 5]: 44 nM; IC50 [2, 6]: 89 nM
7 | CO[C@@H]1CCN(c2ccc(-c3cc(=O)c(C(=O)O)cn3-c3ccc4nc(N5CCOCC5)sc4c3)cc2F)C1 [Example 20-1, (R)-6-(3-fluoro-4-(3-methoxypyrrolidin-1-yl)phenyl)-1-(2-morpholinobenzo[d]thiazol-6-yl)-4-oxo-1,4-dihydropyridine-3-carboxylic acid] | < 500 nM | < 500 nM | 
8 | CN(C)[C@H]1CCN(c2nc3ccc(-n4cc(C(=O)O)c(=O)cc4-c4ccc(N5CCCC5)cc4)cc3s2)C1 [Example 17-1, (S)-1-(2-(3-(dimethylamino)pyrrolidin-1-yl)benzo[d]thiazol-6-yl)-4-oxo-6-(4-(pyrrolidin-1-yl)phenyl)-1,4-dihydropyridine-3-carboxylic acid] | < 500 nM | < 500 nM | 
9 | CO[C@@H]1CCN(c2ccc(-c3cc(=O)c(C(=O)O)cn3-c3ccc4nc(N5CC(OCCF)C5)sc4c3)cc2F)C1 [Example 23-4] |  |  | IC50 ([2]; read-out: IC50 HBV-DNA): 0.88 nM; IC50 ([2]; read-out: IC50 HBsAg): 3.8 nM
10 | COC1CN(c2nc3ccc(-n4cc(C(=O)O)c(=O)cc4-c4ccc5c(c4)OC[C@@H]4CCCN54)cc3s2)C1 [Example 18-2, (S)-1-(2-(3-methoxyazetidin-1-yl)benzo[d]thiazol-6-yl)-4-oxo-6-(2,3,3a,4-tetrahydro-1H-benzo[b]pyrrolo[1,2-d][1,4]oxazin-7-yl)-1,4-dihydropyridine-3-carboxylic acid] | < 500 nM | < 500 nM | 
11 | COCCO[C@@H]1CCN(c2ccc(-c3cc(=O)c(C(=O)O)cn3-c3ccc4nc(N5CCOCC5)sc4c3)cc2)C1 [Example 19-1, (R)-6-(4-(3-(2-methoxyethoxy)pyrrolidin-1-yl)phenyl)-1-(2-morpholinobenzo[d]thiazol-6-yl)-4-oxo-1,4-dihydropyridine-3-carboxylic acid] | < 500 nM | < 500 nM | 
12 | CO[C@@H]1CCN(c2ccc(-c3cc(=O)c(C(=O)O)cn3-c3ccc4nc(N5CC(OCC6CCCO6)C5)sc4c3)cc2F)C1 (stereo partly drawn) [Example 23-3, 6-(3-fluoro-4-((R)-3-methoxypyrrolidin-1-yl)phenyl)-4-oxo-1-(2-(3-((tetrahydrofuran-2-yl)methoxy)azetidin-1-yl)benzo[d]thiazol-6-yl)-1,4-dihydropyridine-3-carboxylic acid] |  |  | IC50 [2, 5]: 0.61 nM; IC50 [2, 6]: 1.7 nM
